pIC50: −log10 of the molar value. “Also recorded” adds a separate entry of the source.
Columns and labels:
[1] = test system: SW900 cells; experiment: Cytotoxicity assay, CellTiter-Glo 2.0, SW900 cells; format: cell-based; conditions: SW900, human lung cancer cell expressing kRAS G12V; 48 hours
Protocol: FIG. 4, panels A-B, illustrates the cytotoxicity of Structure 2 and Structure 3 on SW900 cells. The cytotoxicity of compounds of interest were tested against the human lung cancer cell line SW900 as described in the experimental section. SW900 cells express a G12V mutant kRAS. Compounds were incubated with cells for 48 hours and the assay was developed using Cell Titer Glo 2.0. IC50 vales were determined using GraphPad Prism 4.
(§1) Compounds were assayed for inhibition of cell proliferation and killing cancer cells. Cytotoxicity assays were conducted according to the following general procedure. SW480, SW48, SW900, SW620 were all maintained in Leibowitz L15 media supplemented with 10% fetal bovine serum and 1% PenStrep and grown in a 37° C. incubator without supplemental CO2. Capan-1 cells were maintained in Iscove's Modified Dulbecco's Medium (ATCC 30-2005) containing 20% fetal bovine serum and 1% PenStrep and grown in a 37° C. incubator containing 5% CO2.
(§2) For dose-response assays, SW480 cells were plated into 96 well plates (1 million/plate, ˜10,000/well, 250 μL media/well). Cells were allowed to settle and adhere to plate bottom overnight Compounds were placed in 500 μL media and mixed. Then 250 μL compounds+media was placed in an intermediate plate in row A. Rows B through H were filled with 125 μL media. […] Luminescence was read with FLx800 (BioTek Instruments).

[2] = test system: SW620 cells; experiment: Cytotoxicity assay, CellTiter-Glo 2.0, SW620 cells; format: cell-based; conditions: SW-620; SW620, human colon cancer cell line expressing mutant G12V kRAS; 48 hours
Protocol: FIG. 6, panels A-B, illustrate the cytotoxicity of Structure 2 and Structure 3 on SW620 Cells. The cytotoxicity of compounds of interest were tested against the human colon cancer cell line SW620 as described in the experimental section. SW620 cells express a mutant G12V kRAS. Compounds were incubated with cells for 48 hours and the assay was developed using Cell Titer Glo 2.0. IC50 values were determined using GraphPad Prism4.
as §1, §2

[3] = Pharmacokinetic study in mice; format: in vivo; conditions: ip, 3 mg/kg, CD-1 mice, 3 mg/kg
Protocol: Pharmacokinetic studies were carried out using 10 weeks old CD-1 mice. Structure 2 and Structure 3 were injected ip, 3 mg/kg and 10 mg/kg, respectively, at 8 time points (0, 0.25, 0.5, 1, 2, 4, 8 and 24 hours post-dose). Blood was collected from 3 animals/time point and concentrations of Structure 2 in plasma determined using LC/MS.

[4] = test system: HT29; experiment: Cytotoxicity assay, HT29 cells; format: cell-based; conditions: human colon cancer cell line HT29
Protocol: as §1

[5] = test system: cardiomyocyte cell line H9C2; experiment: Cytotoxicity assay, H9C2 cells; format: cell-based; conditions: rat cardiomyocyte cell line H9C2
[6] = test system: A431; experiment: Cytotoxicity assay, A431 cells; format: cell-based; conditions: A431, human epidermoid carcinoma cell line expressing wild type kRAS
Protocol: as §1

[7] = test system: phosphorylated ERK 1/2 (T202/Y204); experiment: Phosphorylated ERK bioassay (Western blot, SW480 cells); format: cell-based, human; conditions: 3 μM, 24 hours, in the presence of serum
Protocol: As described herein, the main downstream target for kRAS is ERK (Samatar et al., Targeting RAS-ERK signaling in cancer: promises and challenges. Nat Rev Drug Discov. 2014; 13:928-42). kRAS activates ERK leading to phosphorylated ERK. A compound that suppresses kRAS activity is expected to lower phosphorylated ERK.
Test articles abrogate the expression of phosphorylated ERK (T202/Y204) SW480 cells were subjected to test article incubation at 3 μM for 24 hours in the presence of serum to mimic natural growth environment. Cells were extracted and total protein of samples normalized through BCA assay. Processed extracts were subjected to SDS-PAGE/Western blot and blotted for phosphorylated ERK 1/2 (T202/Y204); ERK 1/2; and α-Tubulin.
The compound U0126 in FIG. 8 is a MEK inhibitor which is known to suppress phosphorylation of ERK. The compound was tested along with the test articles to serve as a positive control.

[8] = test system: SW480 cells implanted into nu/nu mice; experiment: Xenograft study; format: in vivo, nude mice (nu/nu); conditions: SW480 subcutaneous tumors in nu/nu mice, 2 mg/kg ip, 24 days post treatment, p<0.028 Student's t-test
Protocol: FIG. 10 Effect of Structure 2 on growth of SW480 cells implanted into nu/nu mice. Boxplots showing tumor volumes in nude mice 24 days post treatment ip with either 2 mg/kg Structure 2 or vehicle control (DMSO). Subcutaneous tumors were induced by subcutaneous inoculation in the right flank of 3×10^6 human colon cancer cell line SW480 in Matrigel. Treatment with Structure 2 was initiated 6 days post tumor implantation. Structure 2 was administrated ip at 2 mg/kg, while control was given vehicle DMSO. All animals were sacrificed at day 30. […] In the Figure, (*) designates p<0.028 compared to vehicle control by Student's t-test.
Female nude mice (nu/nu) were purchased from Simonsen Laboratories (Gilroy, CA). All experiments were performed with 4 to 6-week-old female mice. Mice were housed in a barrier unit in the Tosk Animal facility, kept in filter-top cages with water and food provided ad libitum, and were checked at least twice a week for clinical signs of disease and discomfort. Subcutaneous tumors are induced by subcutaneous inoculation in the right flank of 3×10^6 human colon cancer cell line SW480 in Matrigel. The tumors are allowed to grow and volumes (mm^3) are calculated weekly from digital caliper measurements as 0.5×length×width^2. Treatment was initiated 6 days post tumor implantation. Structure 2 was administrated ip at 2 mg/kg, while control was given vehicle DMSO. […]

Cc1nc(-c2ccc(CNC(=O)c3cc(CC(C)C)nn3C)cc2)no1 [Structure 2, 3-isobutyl-1-methyl-N-(4-(5-methyl-1,2,4-oxadiazol-3-yl)benzyl)-1H-pyrazole-5-carboxamide]
pIC50 [1]: 6.45 | pIC50 [2]: 7.26 | Vd/F ([3]; CD-1, mouse, plasma, plasma, read-out: Vz/F): 0.532 L/kg | mean resident times (MRT) [3]: approximately one to two | AUCINF ([3]; plasma): 10.92 (Microgram * Hour)/mL | AUC_%Extrap ([3]; plasma): 1.92% | AUClast ([3]; plasma): 10.71 (Microgram * Hour)/mL | CI/F ([3]; plasma): 4.58 mL/min/kg | Concentrationmax ([3]; plasma): 5.74 Microgram/mL | Lambda_z ([3]; plasma): 0.53 h⁻¹ | MRTINF ([3]; plasma): 2.15 h | MRTlast ([3]; plasma): 2.00 h | Timelast ([3]; plasma): 8.00 h | concentration at 8 Hour ([3]; mouse, plasma, read-out: Concentrationlast): 110 ng/mL | not cytotoxic at concentrations up to [4]: > 40 µM | not cytotoxic at concentrations up to [5]: > 40 µM | not cytotoxic at concentrations up to [6]: > 40 µM | phosphorylated ERK (T202/Y204) [7]: dramatically decrease phosphorylated ERK | tumor volume versus vehicle control [8]: statistically significant reduction in tumor volume; also recorded: mitigates the growth of SW480 cells

Source: patent publication US12486255B2, “Modulators of RAS GTPase” (Tosk, Inc., priority 2018, dated 2025)
